Tests used:
T98G glioblastoma cells = assay: MTT cell viability assay, T98G; assay type: cell-based; conditions: Homo sapiens, 72 h, mean ± SEM, read-out: IC50 (metabolic activity)
Procedure: Cells harvested from sub-confluent monolayers were seeded at 15,000 cells per mL in a 96-well microtiter plate (Cambridge Technology, Labège, France) and cultured for 24 h under standard conditions. Standard medium was then replaced by fresh medium containing no drugs or compounds at different concentrations. The surviving cells were quantified after 72 h by the MTT assay, according to the manufacturer’s instructions. Briefly, 20 µL of 3-(4,5-diMethylThiazol-2-yl)-2,5diphenyl Tetrazolium bromide (MTT) solution at 5 mg.mL^−1 was added to cells for 3 h at 37 °C. The supernatant was discarded and replaced by 100 µL of dimethyl sulfoxide to dissolve formazan crystals. The absorbance was then read at 600 nm by spectrophotometry. For all concentrations of a given compound, cell viability was expressed as the percentage of the ratio between the mean absorbance of treated cells and the mean absorbance of untreated cells. Three independent experiments were performed, and the data were expressed as percentage of survival (using the untreated cells as 100%) and subjected to statistical analysis (n = 3). The IC50 was calculated using the Chou and Talalay method.

U87 shCTRL cells [1] = assay: Cell cycle by flow cytometry (propidium iodide), U87 shCTRL; assay type: cell-based, human; conditions: 48 h
Procedure: Measurements of cell cycle from DNA content were performed by flow cytometry as described before. Briefly, 4.10^5 cells in exponential growth were seeded in 6-well plates. After 24 h, they were treated with 10 µM of compounds for 48 h. Nocodazole was used as a positive control with a concentration of 1 µM. The trypsinized cells were harvested and then centrifuged (1200 rpm, 5 min, at room temperature). The cell pellet was resuspended in 1 mL of PBS 1× at 4 °C, and then an extra 4 mL of cold PBS was added to wash the pellet. Cells were then centrifuged again (1200 rpm, 5 min, at 4 °C). To fixate the cells, the pellet was resuspended in 100 µL of cold 70% ethanol, then an additional 900 µL was added and cells were incubated for 30 min at −20 °C. After that, 9 mL of cold PBS was added, and cells were centrifuged (2000 rpm, 5 min, at 4 °C) to remove ethanol. The cell pellet was then resuspended in the staining mix containing 50 µg.mL^−1 of propidium iodide (Molecular Probes, Paris, France) and 100 µg.mL^−1 of RNAse A (Sigma-Aldrich, Saint-Quentin-Fallavier, France) in PBS for 20 min at room temperature in darkness. Samples were analyzed on a Beckman–Coulter–Gallios flow cytometer using the Kaluza for Gallios Acquisition v1.0 software. Propidium iodide was excited at 488 nm, and fluorescence was analyzed at 620 nm on channel FL-3. For the analysis, there is considerable overlap between early S phase and G1 and between late S phase and G2/M due to broadening of the distribution caused by variability in the staining of the cells and instrumental variability. Therefore, the percentages of cells in the sub-G1, G1, S, and G2/M phases of the cell cycle were calculated using the Watson et al. algorithm for cell cycle analysis in Kaluza for Gallios Analysis v2.1 software. The software automatically adjusted gates based on PI median fluorescence intensity of the cells and their frequency among total cells. The number of cells in each phase was divided by the total number of analyzed cells, and the values were reported as percentage of the total cells for each cell cycle phase.

U87 shCTRL cells [2] = assay: Mitochondria network analysis (citrate synthase immunofluorescence), U87 shCTRL; assay type: cell-based, human; conditions: 5 µM, 24 h (Figure 4 legend: 48 h)
Procedure: For indirect immunofluorescence of mitochondria, 10^4 cells were plated on cover glass and incubated for 24 h with compounds. Cells were then fixed in 4% formaldehyde (in PBS pH 7.4) for 20 min at RT, permeabilized with PBS-Triton X-100 0.5% for 10 min at RT. Immunostaining was carried out overnight at 4 °C with a primary anti-citrate synthase antibody (dilution 1:400 in PBS-BSA 3%; SC390693; SantaCruz Biotechnologies, Heidelberg, Germany). The following day, the cells were washed then incubated with anti-mouse secondary antibody (dilution 1:800 in PBS-BSA 3%; A-11029; Invitrogen) and TRITC-phalloidin (dilution 1:2500 in PBS-BSA 3%; P1951; Sigma-Aldrich, Saint-Quentin-Fallavier, France) for 1 h at RT in the dark. For the microtubule network, the same protocol for mitochondria labeling was carried out by replacing with primary anti-α-tubulin antibody (dilution 1:400 in PBS-BSA 1% from a 1 mg/mL solution; monoclonal antibody, clone DM1A, Sigma-Aldrich, Saint-Quentin-Fallavier, France). Next, cells were washed in PBS and cover glasses were mounted with a drop of ProLong® anti-fade solution (Invitrogen). Mitochondria and cytoskeletons were imaged using a confocal laser scanning microscope (CLSM) Leica SP5 with a Leica inverted microscope, equipped with a Plan-Apochromat 63×oil immersion objective (NA = 1.4). Each image was recorded with the CLSM’s spectral mode selecting specific domains of the emission spectrum. The Alexafluor488 and FITC fluorophores were excited at 488 nm with an argon laser, and fluorescence emission was collected between 496 nm and 535 nm. The TRITC fluorophore was excited at 543 nm with a helium–neon laser, and fluorescence was collected between 560 and 620 nm. The public-domain Fiji v1.54f software was used for image analysis.
The analyses of mitochondria and microtubule networks were performed using, respectively, the ‘Mitochondria analyzer’ plugin for Fiji v1.54f software and the method described in our earlier work. Briefly, a series of images were transferred to the software and corrected for background fluorescence intensity contribution. Next, the surface of 50 single cells was measured by considering the cell shape as the boundary of labelling of actin or α-tubulin cytoskeletons (respectively for measurement on mitochondria or microtubules). Then, the mitochondria elongation and mean branch junction per mitochondria parameters, and the surface of the microtubule network, were measured by performing systematically the Otsu method to reduce all gray-level images to binary images. […] Moreover, the ratios of microtubules on cell surfaces were calculated as percentages.

Row | IC50 (T98G glioblastoma cells) | Structure (SMILES) | %G1 (cells in G1 phase) (U87 shCTRL cells [1]; compounds 10 µM, NOC 1 µM) | %G2/M (cells in G2/M phase) (U87 shCTRL cells [1]; compounds 10 µM, NOC 1 µM) | change in elongation index of mitochondria (U87 shCTRL cells [2]) | reduction in the number of branch junctions per mitochondria (U87 shCTRL cells [2]) | effect on cell cycle progression (U87 shCTRL cells [1]; 10 µM)
1 | > 100000 nM | Nc1nc2ccc3oc(C(=O)O)cc(=O)c3c2s1 [Compound 5] | 53 ± 4% | 34 ± 5% | No effect | No effect | –
2 | 2800 ± 2400 nM | Nc1nc2ccc3oc(-c4cccc(Oc5ccccc5)c4)cc(=O)c3c2s1 [Compound 2, 2-amino-7-(3-phenoxyphenyl)-9H-chromeno [6,5-d]thiazol-9-one] | – | – | −12.5% | 1.8 fold | no significant effect on cell cycle progression

Source: paper PMC10606064, “2-Aminothiazole-Flavonoid Hybrid Derivatives Binding to Tau Protein and Responsible for Antitumor Activity in Glioblastoma” (International Journal of Molecular Sciences, 2023)
